Values quoted from earlier work in patent US5837715A, “3-fluoro-4-aminopiperidine derivatives as 5-HT receptor agonists” (Merck Sharp & Dohme Ltd., priority 1997, dated 1998).

Key:
[1] = humans, therapeutic doses
[2] = system: human 5-HT1D.sbsb.α and 5-HT1D.sbsb.β receptor subtypes; details: cf. WO-A-91/17174, Table 1

discrimination between the human 5-HT1D.sbsb.α and 5-HT1D.sbsb.β receptor subtypes [2]: barely discriminates
SMILES: CNS(=O)(=O)Cc1ccc2[nH]cc(CCN(C)C)c2c1 [sumatriptan]
adverse cardiovascular events [1]: certain adverse cardiovascular events
